Laboratory results reported in PMC11538426 (Scientific Reports, 2024).

How the values were obtained:
CD3+ T cells = settings: cited from earlier work
monocytes = settings: cited from earlier work
[1] = test system: monocyte-derived DCs (moDCs); format: cell-based, human; settings: rCD40L 5 µg/mL, 72 h

Substance	Induction of IL-12p70 in isolated CD3+ T cells in absence of DC engagement (CD3+ T cells)	Differentiation of monocytes to CD14neg cells (monocytes)	Differentiation of cells within moDC cultures to CD14neg DC phenotype ([1]; after 7 days GM-CSF/IL-4, Fig. 1a)	Proliferative capacity of moDCs (Ki67 expression) ([1]; Fig. 1b)
RSKAKNPLYR linked to R8 [IK14800]	contributes to induction of IL-12p70	does not promote differentiation of monocytes to CD14^neg cells	–	–
rCD40L: recombinant CD40 ligand (BioLegend), used at 5 µg/mL	–	–	near-total differentiation of cells to the CD14^neg DC phenotype	not associated with a significant change in the proliferative capacity
